This test addresses α7 nAChR subtype (Rattus norvegicus, UniProt Q05941). Format: binding. As to conditions: read-out: KD of radioligand (saturation curves, one site model).

pKd: −log10 of the molar value.

Here are results for 1 substance from patent US20080188518A1 (priority 2003, published 2008).

Chain of α7 nAChR subtype (Q05941 23-502 limits assumed): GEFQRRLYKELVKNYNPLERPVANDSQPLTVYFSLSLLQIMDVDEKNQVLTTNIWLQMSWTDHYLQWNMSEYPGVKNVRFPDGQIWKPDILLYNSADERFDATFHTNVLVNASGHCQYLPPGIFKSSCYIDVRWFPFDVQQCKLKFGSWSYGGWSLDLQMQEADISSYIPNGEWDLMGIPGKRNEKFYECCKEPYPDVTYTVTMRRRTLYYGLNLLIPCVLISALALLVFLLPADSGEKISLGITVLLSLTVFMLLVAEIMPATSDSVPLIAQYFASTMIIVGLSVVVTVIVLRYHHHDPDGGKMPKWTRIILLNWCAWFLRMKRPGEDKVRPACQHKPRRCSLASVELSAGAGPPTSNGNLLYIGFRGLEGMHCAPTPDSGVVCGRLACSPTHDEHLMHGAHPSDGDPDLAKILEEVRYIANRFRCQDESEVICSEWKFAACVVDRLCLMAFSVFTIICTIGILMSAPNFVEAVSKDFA

Consider 125I-α-Bungarotoxin [[^125I]-α-BTX], for which the pKd was 8.78.
